The source of these data is patent publication US3987028A, “Antibiotic 20,798 R.P” (Rhone-Poulenc S.A., priority 1968, dated 1976).

Each structure is given as a SMILES string. Converted amounts (≈) assume the structure as drawn. Structures can show the parent of a compound that is named as a salt.

Usually LD50 stands for the dose at which mortality reaches 50%.

One data set in a line: solubility. The data set is classed as physicochemical.
The next data set has as its system sarcoma 180. Kind of data set: anti-tumor activity in mice, sarcoma 180.
The next data set relates to leucaemia L 1210. Kind of data set: anti-tumor activity in mice, leucaemia L 1210.
Data set [1] relates to Bacillus subtilis (ATCC 6633). The data set is classed as cell-based. The note with it: ATCC6633, read-out: Minimal inhibitory concentration. The method, then: (§1) The bacteriostatic activity of 20,798 R.P. was determined by one of the dilution methods usually employed for this purpose. For each microorganism the minimum concentration of antibiotic, which under specified conditions inhibits all visible development of the microorganism in an appropriate nutrient medium, was determined. The results of the various determinations are collected in Table III below, in which the minimum bacteriostatic concentrations are expressed in micrograms of substance per cc. of test medium.

Data set [2] has as its system Mycobacterium phlei (Bacteriological Institute of Lyon). The data set is classed as cell-based. The note with it: Mycolicibacterium phlei, read-out: Minimal inhibitory concentration. The protocol: as §1
Data set [3] deals with Klebsiella pneumoniae ATCC 10,031. The class given is cell-based. The note with it: read-out: Minimal inhibitory concentration. The protocol:
as §1

The test system of data set [4] is Diplococcus pneumoniae (strain Til, Institut Pasteur). The class given is cell-based. The note with it: Streptococcus pneumoniae, read-out: Minimal inhibitory concentration. The method, then:
as §1

Data set [5] has as its system Lactobacillus casei ATCC 7469. The class given is cell-based. The settings on record: Lacticaseibacillus casei, ATCC7469, read-out: Minimal inhibitory concentration. The protocol:
as §1

Data set [6] deals with Streptococcus faecalis (Faculty of Pharmacy, Paris). The class given is cell-based. The settings on record: Enterococcus faecalis, read-out: Minimal inhibitory concentration. The protocol: as §1
The test system of data set [7] is Mycobacterium smegmatis ATCC 607. The class given is cell-based. The settings on record: Mycolicibacterium smegmatis, ATCC607, read-out: Minimal inhibitory concentration. The protocol: as §1
The test system of data set [8] is Staphylococcus aureus, strain 209 P ATCC 6538 P. The class given is cell-based. The note with it: ATCC6538; Staphylococcus aureus 209 P ATCC 6538 P; read-out: Minimal inhibitory concentration. The method, then:
as §1

The test system of data set [9] is Salmonella paratyphi A (Lacasse, Institut Pasteur). The class given is cell-based. The settings on record: Salmonella enterica, read-out: Minimal inhibitory concentration. The method, then:
as §1

Data set [10] deals with Neisseria catarrhalis A 152. The class given is cell-based. The note with it: A152, read-out: Minimal inhibitory concentration. The protocol:
as §1

Data set [11] has as its system Mycobacterium para-smegmatis (A 75, Lausanne). The data set is classed as cell-based. The settings on record: read-out: Minimal inhibitory concentration. The protocol: as §1
The next data set concerns Sarcina lutea ATCC 9341. The class given is cell-based. The note with it: Micrococcus luteus, ATCC9341, read-out: Minimal inhibitory concentration. The protocol: as §1
The test system of a further data set is Proteus X 19. The data set is classed as cell-based. The note with it: read-out: Minimal inhibitory concentration. The method, then:
as §1

The subject of data set [12] is Pasteurella multocida (A 125, Institut Pasteur). The class given is cell-based. The note with it: read-out: Minimal inhibitory concentration. The protocol: as §1
The test system of data set [13] is Streptococcus pyogenes hemolyticus (strain Dig. 7, Institut Pasteur). The class given is cell-based. The settings on record: read-out: Minimal inhibitory concentration. The method, then:
as §1

The nature of another data set: toxicity on mice (LD50). The note with it: mouse, in vivo, ip, intra-peritoneal (i.p.), read-out: 50% lethal dose (LD50). The method, then:
The toxicity of 20,798 R.P. has been studied principally on mice. The 50% lethal dose or LD50 was determined intra-peritoneally: […]

Data set [14] in a line: stability to acid treatment of the fermentation broth. The class given is physicochemical. The note with it: 10° to 75° C., 48 hours to 30 minutes. The method, then: When desired, the fermentation broth can, before the extraction procedures, be treated with an acid at a temperature between 10° and 75° C. for a period of from 48 hours to 30 minutes, the length of time varying inversely with the temperature, so as to enrich the antibiotic 9865 R.P. with daunorubicin. […] For acidification of the fermentation broth inorganic acids (hydrochloric, phosphoric or sulphuric acid) or organic acids (acetic or oxalic acid etc.) are suitable at various concentrations, but preferably hydrochloric acid or oxalic acid is used at concentrations of between 0.01N and 1N. The hydrolysis is preferably carried out for a period of from 15 hours to 1 hour at a temperature of from 20° C. to 50° C., the length of time varying inversely with the temperature.

Data set [15] concerns Brucella bronchiseptica (CN 387 - Wellcome Institute). Put plainly: microbe, parasite or virus in culture. The data set is classed as cell-based. The settings on record: Bordetella bronchiseptica, read-out: Minimal inhibitory concentration.

Regarding `COc1cccc2c1C(=O)c1c(O)c3c(c(O)c1C2=O)CC(O)(C(C)O)CC3OC1CC(N)C(O)C(C)O1` (stereo not shown) [20,798 R.P. hydrochloride], the Solubility entry is listed as “soluble” in “solubility” (alcohols); “practically insoluble” in the data set “solubility” (benzene); “sparingly soluble” in “solubility” (chloroform); “practically insoluble” in “solubility” (diethyl ether); “soluble” in “solubility” (water).

With `COc1cccc2c1C(=O)c1c(O)c3c(c(O)c1C2=O)CC(O)(C(C)O)CC3OC1CC(N)C(O)C(C)O1` (stereo not shown) [20,798 R.P.], the ED50 in the data set with sarcoma 180 (Mus musculus, Sarcoma-180, sc, read-out: 50% active dose (AD50)) amounted to 0.75 mg/kg; in the data set with leucaemia L 1210 (Mus musculus, L1210, ip, read-out: 50% active dose (AD50)), 0.8 mg/kg. Besides, the anti-tumor activity entry with sarcoma 180 (graftable tumours of mice, solid form of sarcoma 180) is “particularly active”; with leucaemia L 1210 (graftable tumours of mice, leucaemia L 1210), “particularly active”. Also, the MIC in [1] is 21 µg/mL (≈ 39.7 µM); in data set [2] it was 3.1 µg/mL (≈ 5.85 µM); in [3], above 330 µg/mL; in [4] it was 6.1 µg/mL (≈ 11.5 µM); in data set [5], 24 µg/mL (≈ 45.3 µM); in [6] it was above 33 µg/mL. Also, the MIC was 5.8 µg/mL (≈ 11 µM) in data set [7]; 100 µg/mL (≈ 189 µM) in [8]; above 83 µg/mL in [9]; above 28 µg/mL in data set [10]; 3.1 µg/mL (≈ 5.85 µM) in data set [11]; 12 µg/mL (≈ 22.7 µM) in the data set on Sarcina lutea ATCC 9341. The MIC in the data set on Proteus X 19 was above 83 µg/mL; in [12], 14 µg/mL (≈ 26.4 µM); in [13] it was 11 µg/mL (≈ 20.8 µM); in [15], 170 µg/mL (≈ 321 µM). Also, in “toxicity on mice (LD50)”, the LD50 was found to be 6.5 mg/kg. For the same compound, the “hydrolysis under acid treatment” value in data set [14] was “not hydrolysed”.

For the compound `COc1cccc2c1C(=O)c1c(O)c3c(c(O)c1C2=O)CC(O)(C(C)O)CC3O` (stereo not shown) [aglycone of 20,798 R.P.], the Solubility entry in the data set “solubility” (benzene) was “very sparingly soluble”; in “solubility” (chloroform) it was “sparingly soluble”; in the data set “solubility” (diethyl ether), “practically insoluble”; in the data set “solubility” (ethyl acetate), “sparingly soluble”; in the data set “solubility” (hexane), “practically insoluble”; in “solubility” (methanol), “sparingly soluble”. Moreover, in the data set “solubility” (water), the Solubility result is “practically insoluble”.
